Measured values published in patent US12162820B2 (TAIWANJ PHARMACEUTICALS CO., LTD., priority 2019, dated 2024).

Experiments:
Assay type in all cases: biochemical
HDAC1 = target: T1, HDAC1 (Homo sapiens, UniProt Q13547); test: HDAC Inhibition Screening Assay (FLUOR DE LYS Fluorimetric Drug Discovery Kit), HDAC1; conditions: for inhibition at 2 µM: 2 μM compound; for inhibition at 10 µM: 10 μM compound; for inhibition at 50 µM: 50 μM compound
T1 construct: purchased Enzo Life Sciences
In short: (§1)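 Recombinant HDAC1, HDAC2 or HDAC3 was incubated with an acetyl-lysine fluorogenic substrate, and a developer was then added to release the fluorophore. Compounds were tested at 2, 10 and 50 μM, with fluorescence read at 360 or 485 nm excitation and 460 or 530 nm emission. Activity was expressed as a percentage of basal control minus baseline.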

HDAC2 = target: T2, HDAC2 (Homo sapiens, UniProt Q92769); test: HDAC Inhibition Screening Assay (FLUOR DE LYS Fluorimetric Drug Discovery Kit), HDAC2; conditions: for inhibition at 2 µM: 2 μM compound; for inhibition at 10 µM: 10 μM compound; for inhibition at 50 µM: 50 μM compound
T2 construct: purchased Enzo Life Sciences
In short: as §1

ATX (autotaxin) = target: T3, ATX (autotaxin) (Homo sapiens, UniProt Q13822); test: Autotaxin Inhibition Screening Assay (choline release from LPC, LPC-CR); conditions: for inhibition at 4 µM: 4 μM compound; for inhibition at 20 µM: 20 μM compound; for inhibition at 50 µM: 50 μM compound
T3 construct: purchased Cayman 10803
In short: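 20 ng ATX incubated with 100 μM 14:0 LPC in 50 mM Tris pH 8.0, 0.01% Triton X-100, 50 mM CaCl2, with choline oxidase/HRP/2 mM HVA coupling; compounds at 4, 20 and 50 μM. HVA fluorescence (ex/em 320/450 nm) read every 60 s for 90 min; inhibition % from slopes corrected for blank versus vehicle.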

HDAC3 = target: T4, HDAC3 (Homo sapiens, UniProt O15379); test: HDAC Inhibition Screening Assay (FLUOR DE LYS Fluorimetric Drug Discovery Kit), HDAC3; conditions: for inhibition at 2 µM: 2 μM compound; for inhibition at 10 µM: 10 μM compound; for inhibition at 50 µM: 50 μM compound
T4 construct: purchased Enzo Life Sciences
In short: as §1

T1 sequence (Q13547 whole entry): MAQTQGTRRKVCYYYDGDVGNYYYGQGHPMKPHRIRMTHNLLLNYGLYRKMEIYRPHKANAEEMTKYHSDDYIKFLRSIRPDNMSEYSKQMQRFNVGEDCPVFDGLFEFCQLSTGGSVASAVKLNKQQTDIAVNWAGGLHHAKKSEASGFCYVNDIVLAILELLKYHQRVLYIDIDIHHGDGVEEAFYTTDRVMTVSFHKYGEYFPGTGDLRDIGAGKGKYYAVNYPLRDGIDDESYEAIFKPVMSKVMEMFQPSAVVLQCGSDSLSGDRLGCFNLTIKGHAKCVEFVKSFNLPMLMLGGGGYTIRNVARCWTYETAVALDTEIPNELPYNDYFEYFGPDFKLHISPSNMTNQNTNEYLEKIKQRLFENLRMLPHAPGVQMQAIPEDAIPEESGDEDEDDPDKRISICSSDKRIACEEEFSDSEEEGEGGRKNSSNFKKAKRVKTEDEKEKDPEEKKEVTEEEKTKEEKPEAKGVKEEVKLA
T4 sequence (O15379 whole entry): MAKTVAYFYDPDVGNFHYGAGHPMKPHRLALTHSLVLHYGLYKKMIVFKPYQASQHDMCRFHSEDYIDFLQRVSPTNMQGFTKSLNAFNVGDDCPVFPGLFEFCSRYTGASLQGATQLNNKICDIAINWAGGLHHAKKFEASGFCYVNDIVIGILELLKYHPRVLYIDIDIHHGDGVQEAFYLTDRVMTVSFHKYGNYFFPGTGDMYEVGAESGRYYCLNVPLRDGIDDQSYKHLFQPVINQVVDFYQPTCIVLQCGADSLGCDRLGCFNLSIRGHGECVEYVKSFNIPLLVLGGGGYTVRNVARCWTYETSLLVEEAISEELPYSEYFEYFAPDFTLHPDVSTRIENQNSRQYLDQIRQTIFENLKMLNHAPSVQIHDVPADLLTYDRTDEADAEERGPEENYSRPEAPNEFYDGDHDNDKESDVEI
T4 sequence (O75376 395-489 partner limits assumed): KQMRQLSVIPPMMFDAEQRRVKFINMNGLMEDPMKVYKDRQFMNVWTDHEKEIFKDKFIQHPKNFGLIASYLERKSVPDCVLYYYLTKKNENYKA
T2 sequence (Q92769 whole entry): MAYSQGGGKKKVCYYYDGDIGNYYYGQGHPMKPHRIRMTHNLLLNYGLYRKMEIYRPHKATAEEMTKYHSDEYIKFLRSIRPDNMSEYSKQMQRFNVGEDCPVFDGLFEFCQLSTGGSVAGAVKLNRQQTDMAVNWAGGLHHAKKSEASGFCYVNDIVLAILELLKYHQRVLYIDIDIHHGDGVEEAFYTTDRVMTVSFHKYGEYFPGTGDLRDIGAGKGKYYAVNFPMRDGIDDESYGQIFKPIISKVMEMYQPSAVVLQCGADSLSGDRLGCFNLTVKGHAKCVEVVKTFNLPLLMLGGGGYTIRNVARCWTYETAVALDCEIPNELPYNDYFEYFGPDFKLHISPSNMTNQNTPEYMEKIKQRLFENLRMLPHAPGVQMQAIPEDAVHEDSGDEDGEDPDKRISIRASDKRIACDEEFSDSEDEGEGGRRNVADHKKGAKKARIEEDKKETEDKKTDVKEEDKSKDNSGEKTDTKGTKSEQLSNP

Row | Structure (SMILES) | inhibition at 2 µM (HDAC1) [%] | inhibition at 10 µM (HDAC1) [%] | inhibition at 50 µM (HDAC1) [%] | inhibition at 2 µM (HDAC2) [%] | inhibition at 10 µM (HDAC2) [%] | inhibition at 50 µM (HDAC2) [%] | inhibition at 4 µM (ATX (autotaxin)) [%] | inhibition at 20 µM (ATX (autotaxin)) [%] | inhibition at 50 µM (ATX (autotaxin)) [%] | inhibition at 2 µM (HDAC3) [%] | inhibition at 10 µM (HDAC3) [%] | inhibition at 50 µM (HDAC3) [%]
1 | Nc1cc(F)ccc1NC(=O)CCCCCCC(=O)NC1CCc2cc(Br)ccc21 (stereo not drawn) [Compound 39, N^1-(2-amino-4-fluorophenyl)-N8-(5-bromo-2,3-dihydro-1H-inden-1-yl)octanediamide] | < 50 | < 50 | < 50 | < 50 | < 50 | < 50 | < 50 | < 50 | < 50 | < 50 | 50 to 80 | 50 to 80
2 | Cc1[nH]c2ccccc2c1CCNC1CCCc2cc(/C=C/C(=O)NO)ccc21 (stereo not drawn) [Compound 63, (E)-N-hydroxy-3-(5-((2-(2-methyl-1H-indol-3-yl)ethyl)amino)-5,6,7,8-tetrahydronaphthalen-2-yl)acrylamide] | > 80 | > 80 | > 80 | > 80 | > 80 | > 80 | < 50 | < 50 | < 50 | > 80 | > 80 | > 80
3 | O=C(CCCCCCC(=O)NC1CCc2cc(Br)ccc21)NO (stereo not drawn) [Compound 40, N1-(5-bromo-2,3-dihydro-1H-inden-1-yl)-N8-hydroxyoctanediamide] | 50 to 80 | > 80 | > 80 | > 80 | > 80 | > 80 | < 50 | < 50 | < 50 | > 80 | > 80 | > 80
4 | CN(C)c1ccc(C(=O)NC2CCc3cc(/C=C/C(=O)NO)ccc32)cc1 (stereo not drawn) [Compound 26, (E)-4-(dimethylamino)-N-(5-(3-(hydroxyamino)-3-oxoprop-1-en-1-yl)-2,3-dihydro-1H-inden-1-yl)benzamide] | > 80 | > 80 | > 80 | > 80 | > 80 | > 80 | < 50 | < 50 | < 50 | > 80 | > 80 | > 80
5 | O=C(/C=C/c1ccc2c(c1)CCC2N1CC(=O)N(c2cc(Cl)cc(Cl)c2)C1=O)NO (stereo not drawn) [Compound 37, (E)-3-(1-(3-(3,5-dichlorophenyl)-2,4-dioxoimidazolidin-1-yl)-2,3-dihydro-1H-inden-5-yl)-N-hydroxyacrylamide] | > 80 | > 80 | > 80 | > 80 | > 80 | > 80 | < 50 | < 50 | < 50 | > 80 | > 80 | > 80
6 | COc1ccc(S(=O)(=O)NC2CCc3cc(/C=C/C(=O)NO)ccc32)cc1 (stereo not drawn) [Compound 20, (E)-N-hydroxy-3-(1-((4-methoxyphenyl)sulfonamido)-2,3-dihydro-1H-inden-5-yl)acrylamide] | 50 to 80 | > 80 | > 80 | 50 to 80 | > 80 | > 80 | < 50 | < 50 | < 50 | > 80 | > 80 | > 80
7 | Nc1cc(F)ccc1NC(=O)CCCCCNC(=O)/C=C/c1ccc2c(c1)CCC2NC(=O)c1ccc(F)cc1 (stereo not drawn) [Compound 31, (E)-N-(5-(3-((6-((2-amino-4-fluorophenyl)amino)-6-oxohexyl)amino)-3-oxoprop-1-en-1-yl)-2,3-dihydro-1H-inden-1-yl)-4-fluorobenzamide] | < 50 | 50 to 80 | 50 to 80 | > 80 | > 80 | > 80 | < 50 | < 50 | < 50 | 50 to 80 | > 80 | > 80
8 | O=C(/C=C/c1ccc2c(c1)CCC2NC(=O)OCc1cc(C(F)(F)F)cc(C(F)(F)F)c1)NO (stereo not drawn) [Compound 15, 3,5-bis(trifluoromethyl)benzyl (E)-(5-(3-(hydroxyamino)-3-oxoprop-1-en-1-yl)-2,3-dihydro-1H-inden-1-yl)carbamate] | < 50 | 50 to 80 | > 80 | < 50 | 50 to 80 | > 80 | < 50 | < 50 | < 50 | < 50 | 50 to 80 | > 80
9 | O=C(CCCCCCC(=O)Nc1ccc2c(c1)CC/C(=C\c1cc(C(F)(F)F)cc(C(F)(F)F)c1)C2=O)NO [Compound 4] | 50 to 80 | > 80 | > 80 | 50 to 80 | > 80 | > 80 | > 80 | > 80 | > 80 | < 50 | 50 to 80 | > 80
10 | Nc1ccccc1NC(=O)c1ccc(COc2ccc3c(c2)CC/C(=C\c2cc(C(F)(F)F)cc(C(F)(F)F)c2)C3=O)cc1 [Compound 66, (E)-N-(2-aminophenyl)-4-(((6-(3,5-bis(trifluoromethyl)-benzylidene)-5-oxo-5,6,7,8-tetrahydronaphthalen-2-yl)oxy)methyl)benzamide] | < 50 | < 50 | < 50 | < 50 | < 50 | < 50 | < 50 | < 50 | < 50 | < 50 | < 50 | < 50
11 | Nc1cc(F)ccc1NC(=O)/C=C/c1ccc2c(c1)CCCC2NC(=O)c1cc(C(F)(F)F)cc(C(F)(F)F)c1 (stereo not drawn) [Compound 23] | < 50 | < 50 | < 50 | < 50 | < 50 | < 50 | < 50 | < 50 | < 50 | < 50 | < 50 | < 50
12 | O=C(/C=C/c1ccc2c(c1)CCC2NCCC(=O)Nc1cc(C(F)(F)F)cc(C(F)(F)F)c1)NO (stereo not drawn) [Compound 50, (E)-3-(1-((3-((3,5-bis(trifluoromethyl)phenyl)amino)-3-oxopropyl)amino)-2,3-dihydro-1H-inden-5-yl)-N-hydroxyacrylamide] | > 80 | > 80 | > 80 | > 80 | > 80 | > 80 | < 50 | < 50 | < 50 | > 80 | > 80 | > 80
13 | O=C(/C=C/c1ccc2c(c1)CCC2NCCc1cc(C(F)(F)F)cc(C(F)(F)F)c1)NO (stereo not drawn) [Compound 54, (E)-3-(1-((3,5-bis(trifluoromethyl)phenethyl)amino)-2,3-dihydro-1H-inden-5-yl)-N-hydroxyacrylamide] | > 80 | > 80 | > 80 | > 80 | > 80 | > 80 | < 50 | < 50 | < 50 | > 80 | > 80 | > 80
14 | Nc1cc(F)ccc1NC(=O)CCCCCCC(=O)Nc1ccc2c(c1)CC/C(=C\c1cc(C(F)(F)F)cc(C(F)(F)F)c1)C2=O [Compound 5, (E)-N1-(2-amino-4-fluorophenyl)-N8-(6-(3,5-bis(trifluoromethyl)benzylidene)-5-oxo-5,6,7,8-tetrahydronaphthalen-2-yl)octanediamide] | < 50 | < 50 | < 50 | < 50 | < 50 | < 50 | 50 to 80 | 50 to 80 | 50 to 80 | < 50 | < 50 | < 50
15 | COc1ccc(S(=O)(=O)NC2CCc3cc(/C=C/C(=O)Nc4ccc(F)cc4N)ccc32)cc1 (stereo not drawn) [Compound 19, (E)-N-(2-amino-4-fluorophenyl)-3-(1-((4-methoxyphenyl)sulfonamido)-2,3-dihydro-1H-inden-5-yl)acrylamide] | < 50 | < 50 | < 50 | < 50 | < 50 | < 50 | < 50 | < 50 | < 50 | < 50 | < 50 | < 50
